Results from article PMC6039549, “The Sodium Sialic Acid Symporter From Staphylococcus aureus Has Altered Substrate Specificity” (Frontiers in Chemistry, 2018).

Assays:
[1] = molecular target: T1, SaSiaT (sodium sialic acid symporter) (Staphylococcus aureus, UniProt A0A0H2XJ46); assay: isothermal titration calorimetry (n = […]); microscale thermophoresis gives Kd =[…]; proteoliposome transport KM […]; type: binding
T1 construct: gene SAUSA300_0314; recombinant SaSiaT, GFP-tag cleaved with HRV3C protease, purified in DDM

[2] = molecular target: T1, SaSiaT (sodium sialic acid symporter); assay: isothermal titration calorimetry (n = […]); microscale thermophoresis gives Kd =[…]; type: binding

T1 sequence (A0A0H2XJ46 entry or part of it): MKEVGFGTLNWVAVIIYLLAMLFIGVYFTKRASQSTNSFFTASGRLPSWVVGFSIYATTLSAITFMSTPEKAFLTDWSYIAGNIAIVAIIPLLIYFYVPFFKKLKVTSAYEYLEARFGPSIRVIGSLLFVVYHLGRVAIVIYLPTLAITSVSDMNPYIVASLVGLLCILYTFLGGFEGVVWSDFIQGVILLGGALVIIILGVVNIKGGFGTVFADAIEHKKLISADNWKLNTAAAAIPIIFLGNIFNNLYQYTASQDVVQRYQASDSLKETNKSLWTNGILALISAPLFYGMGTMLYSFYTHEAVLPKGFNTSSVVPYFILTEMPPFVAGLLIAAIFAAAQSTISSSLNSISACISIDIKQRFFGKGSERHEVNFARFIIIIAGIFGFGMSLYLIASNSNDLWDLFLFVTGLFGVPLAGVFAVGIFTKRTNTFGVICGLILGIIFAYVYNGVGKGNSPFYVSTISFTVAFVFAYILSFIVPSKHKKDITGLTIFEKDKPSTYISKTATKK

SMILES | Kd [1] | Kd [2]
CC(=O)N[C@H]1[C@H]([C@H](O)[C@H](O)CO)OC(O)(C(=O)O)C[C@@H]1O (some centres unmarked) [Neu5Ac, N-acetylneuraminic acid] | 106 ± 2 µM | 
O=C(CO)N[C@H]1[C@H]([C@H](O)[C@H](O)CO)O[C@@](O)(C(=O)O)C[C@@H]1O [Neu5Gc, N-glycolylneuraminic acid] |  | 18 ± 2 µM
